Measured values: patent publication US11291655B2, “RAD51 inhibitors” (Cyteir Therapeutics, Inc., priority 2017, dated 2022)

Tested on: Daudi Cell Culture
Test: Compound primary screening in Daudi cell culture
Type: cell-based
Details: Homo sapiens, 168 h; Daudi cells, 1250 cells per well, reads on Day 7
Experimental: Compound Primary Screening
1. Materials and Supplies
Plastic ware and consumables needed for this experiment include: Cell Culture media; Evaporation Buffer media; 100% DMSO; 96 well U-bottom sterile culture plates; 250 mL bottle; 1.5 mL Opaque amber epi tubes; Epi Tube rack; 300 mL reservoirs; 25 mL reservoir; 25 mL serological pipette tips; 5 mL serological pipette tips P1000 Pipette Tips; and P200 Pipette Tips.
Equipment needed for this experiment include: Viaflo 384 liquid handler; Eppendorf serological pipette; Eppendorf P1000 Pipette; and Eppendorf P200 Pipette
Daudi Cell Culture is also needed for this experiment.
Lastly, compounds (e.g., the compounds of this invention) to be tested are needed.
All steps were performed in a sterile environment inside the Biosafety cabinet.
A 96 well u-bottom plate was prepared by writing the experiment number, plate number, date and initials in the top right corner of the plate lid. With a sterile 300 ml reservoir, and 25 ml serological pipette, evaporation buffer media was pipetted into reservoir in 25 ml increments. Using the liquid handler, 150 ul of evaporation buffer media was pipetted from reservoir into rows A and H, and Columns 1 and 12 of the 96 well u-bottom plate. Cell cultures were counted to obtain the density of cells per ml, and the culture viability. The cell density information was used to obtain 1,000,000 cells from culture using a 5 mL serological pipette into an epi tube. The cell density information from the culture was used to calculate the number of cells and volume of media needed for the assay to seed 1250 cells in 130 ul of media per available culture well in the 96 well u-bottom plate. Rows B through F were used for cells (50 wells in total), with row G left for an empty media control. The calculation was overestimated by 10 mL to account for the dead volume in the 300 ml reservoir. Once the media volume was calculated, the appropriate volume of media was pipetted in 25 mL increments into the 250 mL bottle using a 25 mL serological pipette. The 250 ml bottle was capped tightly, and placed into a 37° C. water bath for 2 minutes. While the culture media was warming, 10 mL of fresh media was pipetted from the 500 mL culture media bottle into a sterile 25 mL reservoir. Using the Eppendorf multichannel pipette, 130 ul of media was pipetted from the 25 mL reservoir into row G of the 96 well u-bottom plate. Once the 250 mL bottle of media was warmed, the volume of culture needed was pipetted into the bottle, and mixed gently with a 25 mL serological pipette as to not create bubbles, and then the contents of the bottle were pipetted into a new 300 mL reservoir. Using the liquid handler, 130 ul of culture was pipetted from the 300 mL reservoir into rows B through F of the 96 well u-bottom plate. Once the culture was added, the plate was placed into a 37° C. incubator until the compound master plate was prepared for use.
Two 96 well u-bottom plates were prepared by writing the master plate name in the upper right corner of the plate lid. Labeling one DMSO master and the other Media Master. The compounds of interest were obtained from the laboratory freezer, and placed into a 25 well storage box with a lid, and set the box aside. The compounds were vortexed after thawing but before use. Using an automatic multichannel pipette, 20 ul of 100% DMSO was pipetted into wells B3-B11 through G3-G11 of the DMSO master plate. For each compound on the master plate, 50 ul of the compound were pipetted in the appropriate well of row 2 (reference plate map to determine appropriate well). A serial dilution was prepared beginning by aspirating 20 ul from row 2 and mixing with row 3, repeating until row 11 was reached. Using the liquid handler, 194 ul of Daudi media was dispensed into wells B2-B11 through G2-G11 of the Media master plate. Using the liquid handler, 6 ul from the DMSO master plate was aspirated and dispensed into the media master plate, mixing 100 ul twice. […]

Compound: CC(C)OC(=O)Nc1ccc(-c2ncc(-c3ccc(NC(=O)NCc4ccccc4)cc3S(=O)(=O)NC(C)(C)C)s2)cc1 [Compound A2]
- EC50: < 1 µM

Compound: CC(=O)Nc1ccc(-c2cnc(-c3ccc(NC(=S)NC(C)C)cc3)s2)c(S(=O)(=O)N2CCNCC2)c1 [Compound A3]
- EC50: < 5 µM

Compound: CC(=O)Nc1ccc(-c2cnc(-c3ccc(N)cc3)s2)c(S(=O)(=O)NC(C)(C)C)c1 [Compound A4]
- EC50: < 10 µM

Compound: CC(=O)Nc1ccc(-c2cnc(-c3ccc(OC(=O)NC(C)C)cc3)s2)c(S(=O)(=O)NC(C)(C)C)c1 [Compound A5]
- EC50: < 5 µM

Compound: CC(C)OC(=O)Nc1ccc(-c2ncc(-c3ccc(-c4cnc[nH]4)cc3S(=O)(=O)NC(C)(C)C)s2)cc1 [Compound A6]
- EC50: < 5 µM

Compound: CC(C)N(C)C(=O)Nc1ccc(-c2ncc(-c3ccc(N4CCCC4=O)cc3S(=O)(=O)NC(C)(C)C)s2)cc1 [Compound A7]
- EC50: < 10 µM

Compound: CC(C)OC(=O)Nc1ccc(-c2ncc(-c3ccc(NC(=O)OCCO)cc3S(=O)(=O)NC(C)(C)C)s2)cc1 [Compound B1]
- EC50: < 5 µM

Compound: COCCOC(=O)Nc1ccc(-c2cnc(-c3ccc(NC(=O)OC(C)C)cc3)s2)c(S(=O)(=O)NC(C)(C)C)c1 [Compound B2]
- EC50: < 1 µM

Compound: CC(C)OC(=O)Nc1ccc(-c2ncc(-c3ccc(NC(=O)OCc4ccccn4)cc3S(=O)(=O)NC(C)(C)C)s2)cc1 [Compound B3]
- EC50: < 1 µM

Compound: CC(C)OC(=O)Nc1ccc(-c2ncc(-c3ccc(NC(=O)OCc4ccncc4)cc3S(=O)(=O)NC(C)(C)C)s2)cc1 [Compound B4]
- EC50: < 1 µM

Compound: C=C(C)COC(=O)Nc1ccc(-c2cnc(-c3ccc(NC(=O)OC(C)C)cc3)s2)c(S(=O)(=O)NC(C)(C)C)c1 [Compound B5]
- EC50: < 1 µM

Compound: CC(C)OC(=O)Nc1ccc(-c2ncc(-c3ccc(NC(=O)CCc4ccccc4)cc3S(=O)(=O)NC(C)(C)C)s2)cc1 [Compound B6]
- EC50: < 1 µM

Compound: CC(C)OC(=O)Nc1ccc(-c2ncc(-c3ccc(NC(=O)OCC4CCCN4)cc3S(=O)(=O)NC(C)(C)C)s2)cc1 (centres unmarked) [Compound B7]
- EC50: < 5 µM

Compound: CC(C)OC(=O)Nc1ccc(-c2ncc(-c3ccc(NC(=O)OCCc4ccccc4)cc3S(=O)(=O)NC(C)(C)C)s2)cc1 [Compound B8]
- EC50: < 1 µM

Compound: CC(C)OC(=O)Nc1ccc(-c2ncc(-c3ccc(NC(=O)OCc4cccnc4)cc3S(=O)(=O)NC(C)(C)C)s2)cc1 [Compound B9]
- EC50: < 1 µM

Compound: CC(C)OC(=O)Nc1ccc(-c2ncc(-c3ccc(NC(=O)OCC4CCCCC4)cc3S(=O)(=O)NC(C)(C)C)s2)cc1 [Compound B10]
- EC50: < 1 µM

Compound: CC(C)OC(=O)Nc1ccc(-c2ncc(-c3ccc(NC(=O)OCc4nccs4)cc3S(=O)(=O)NC(C)(C)C)s2)cc1 [Compound B11]
- EC50: < 1 µM

Compound: C/C=C/COC(=O)Nc1ccc(-c2cnc(-c3ccc(NC(=O)OC(C)C)cc3)s2)c(S(=O)(=O)NC(C)(C)C)c1 [Compound B12]
- EC50: < 1 µM

Compound: CC(C)OC(=O)Nc1ccc(-c2ncc(-c3ccc(NC(=O)OCCN)cc3S(=O)(=O)NC(C)(C)C)s2)cc1 [Compound B13]
- EC50: < 5 µM

Compound: CC(C)OC(=O)Nc1ccc(-c2ncc(-c3ccc(NC(=O)OCc4ncc[nH]4)cc3S(=O)(=O)NC(C)(C)C)s2)cc1 [Compound B14]
- EC50: < 10 µM

Compound: CC(C)OC(=O)Nc1ccc(-c2ncc(-c3ccc(NC(=O)OC(C)c4ccccc4)cc3S(=O)(=O)NC(C)(C)C)s2)cc1 (centres unmarked) [Compound B15]
- EC50: < 1 µM

Compound: CC(C)OC(=O)Nc1ccc(-c2ncc(-c3ccc(NC(=O)NC(C)c4ccccc4)cc3S(=O)(=O)NC(C)(C)C)s2)cc1 (centres unmarked) [Compound C1]
- EC50: < 1 µM

Compound: COC(=O)[C@H](Cc1ccccc1)NS(=O)(=O)c1cc(NC(C)=O)ccc1-c1cnc(-c2ccc(NC(=S)NC(C)C)cc2)s1 [Compound D1]
- EC50: > 10 µM

Compound: COC(=O)[C@@H](NS(=O)(=O)c1cc(NC(C)=O)ccc1-c1cnc(-c2ccc(NC(=S)NC(C)C)cc2)s1)C(C)C [Compound D2]
- EC50: > 10 µM

Compound: CC(=O)Nc1ccc(-c2cnc(-c3ccc(NC(=S)NC(C)C)cc3)s2)c(S(=O)(=O)NCc2ccccn2)c1 [Compound D3]
- EC50: > 10 µM

Compound: CC(=O)Nc1ccc(-c2cnc(-c3ccc(NC(=S)NC(C)C)cc3)s2)c(S(=O)(=O)NCC(C)(C)CO)c1 [Compound D4]
- EC50: > 10 µM

Compound: CC(=O)Nc1ccc(-c2cnc(-c3ccc(NC(=S)NC(C)C)cc3)s2)c(S(=O)(=O)N[C@@H](C)CO)c1 [Compound D5]
- EC50: > 10 µM

Compound: CNS(=O)(=O)c1cc(NC(C)=O)ccc1-c1cnc(-c2ccc(NC(=S)NC(C)C)cc2)s1 [Compound D6]
- EC50: > 10 µM

Compound: CC(=O)Nc1ccc(-c2cnc(-c3ccc(NC(=S)NC(C)C)cc3)s2)c(S(=O)(=O)N[C@H]2CC[C@H](O)CC2)c1 [Compound D7]
- EC50: > 10 µM

Compound: CC(=O)Nc1ccc(-c2cnc(-c3ccc(NC(=S)NC(C)C)cc3)s2)c(S(=O)(=O)N2CCOCC2)c1 [Compound D8]
- EC50: > 10 µM

Compound: CCNS(=O)(=O)c1cc(NC(C)=O)ccc1-c1cnc(-c2ccc(NC(=S)NC(C)C)cc2)s1 [Compound D9]
- EC50: > 10 µM

Compound: CC(=O)Nc1ccc(-c2cnc(-c3ccc(NC(=S)NC(C)C)cc3)s2)c(S(=O)(=O)N(C)C)c1 [Compound D10]
- EC50: < 1 µM

Compound: CC(=O)Nc1ccc(-c2cnc(-c3ccc(NC(=S)NC(C)C)cc3)s2)c(S(=O)(=O)NC(CO)CO)c1 [Compound D11]
- EC50: > 10 µM

Compound: CC(=O)Nc1ccc(-c2cnc(-c3ccc(NC(=S)NC(C)C)cc3)s2)c(S(=O)(=O)NCc2ccncc2)c1 [Compound D12]
- EC50: > 10 µM

Compound: CC(=O)Nc1ccc(-c2cnc(-c3ccc(NC(=S)NC(C)C)cc3)s2)c(S(=O)(=O)N2CCCC2)c1 [Compound D13]
- EC50: > 10 µM

Compound: CC(=O)Nc1ccc(-c2cnc(-c3ccc(NC(=S)NC(C)C)cc3)s2)c(S(=O)(=O)N2CCCCC2)c1 [Compound D14]
- EC50: > 10 µM

Compound: COC(=O)[C@H](CO)NS(=O)(=O)c1cc(NC(C)=O)ccc1-c1cnc(-c2ccc(NC(=S)NC(C)C)cc2)s1 [Compound D15]
- EC50: > 10 µM

Compound: CC(=O)Nc1ccc(-c2cnc(-c3ccc(NC(=S)NC(C)C)cc3)s2)c(S(=O)(=O)NCCN(C)C)c1 [Compound D16]
- EC50: > 10 µM

Compound: CC(=O)Nc1ccc(-c2cnc(-c3ccc(NC(=S)NC(C)C)cc3)s2)c(S(=O)(=O)NCCN)c1 [Compound D17]
- EC50: > 10 µM

Compound: CC(=O)Nc1ccc(-c2cnc(-c3ccc(NC(=S)NC(C)C)cc3)s2)c(S(=O)(=O)N[C@H](CO)C(C)C)c1 [Compound D18]
- EC50: > 10 µM

Compound: CC(=O)Nc1ccc(-c2cnc(-c3ccc(NC(=S)NC(C)C)cc3)s2)c(S(=O)(=O)NCc2ccccc2)c1 [Compound D19]
- EC50: > 10 µM

Compound: COC(=O)CNS(=O)(=O)c1cc(NC(C)=O)ccc1-c1cnc(-c2ccc(NC(=S)NC(C)C)cc2)s1 [Compound D20]
- EC50: > 10 µM

Compound: COC(=O)[C@H](C)NS(=O)(=O)c1cc(NC(C)=O)ccc1-c1cnc(-c2ccc(NC(=S)NC(C)C)cc2)s1 [Compound D21]
- EC50: > 10 µM

Compound: CC(=O)Nc1ccc(-c2cnc(-c3ccc(NC(=S)NC(C)C)cc3)s2)c(S(=O)(=O)N2C3CCC2CC3)c1 [Compound D22]
- EC50: < 1 µM

Compound: CNCCCNS(=O)(=O)c1cc(NC(C)=O)ccc1-c1cnc(-c2ccc(NC(=S)NC(C)C)cc2)s1 [Compound D23]
- EC50: > 10 µM

Compound: CC(=O)Nc1ccc(-c2cnc(-c3ccc(NC(=S)NC(C)C)cc3)s2)c(S(=O)(=O)NCCCN)c1 [Compound D24]
- EC50: > 10 µM

Compound: CC(=O)Nc1ccc(-c2cnc(-c3ccc(NC(=S)NC(C)C)cc3)s2)c(S(=O)(=O)NCCCN(C)C)c1 [Compound D25]
- EC50: < 1 µM
